In patent US8512708B2, “GP96 derived peptides” (Compugen Ltd., priority 2008, dated 2013):

Tests used:
THP-1 cells = assay: LPS-induced TNF-α secretion from THP-1 cells (ELISA); format: cell-based, human; conditions: LPS 100 ng/ml, 4 hours
Method: THP-1 cells were seeded at 2×10^5 cells/ml in 100 μl of media (RPMI-1640 medium+10% FBS) in a 96 well plates. The reconstituted peptide at final concentrations of 20, 60, 180, 540, 1620, 4860 or 14580 nM were added to the relevant wells in a volume of 100 μl and LPS at a final concentration of 100 ng/ml (Sigma, Cat # L-6529, Lot #054K4022, stock concentration of 1 mg/ml) was added to the wells in a volume of 100 μl. Plates were incubated for 4 hours and then centrifuged 5 minutes at 4000 rpm. Conditioned medium (200 μl) was transferred to new plates and kept at −20° C. The concentration of TNF-α was measured using TNF-α ELISA (R&D Systems, Human TNF-alpha Quantikine ELISA Kit, Cat # STA00C).
THP-1 cells were seeded at 2×10^5 cells/ml in 100 μl of media (RPMI-1640 medium+10% FBS) in 96 well plates. The reconstituted peptide at final concentrations of 0.3, 1, 10, 30 or 60 μg/ml were added to the relevant wells in a volume of 100 μl and LPS at a final concentration of 100 ng/ml (Sigma, Cat # L-6529, Lot #054K4022, stock concentration of 1 mg/ml) was added to the wells in a volume of 100 Plates were incubated for 4 hours and then centrifuged 5 minutes at 4000 rpm. Conditioned medium (200 μl) was transferred to new plates and kept at −20° C. The concentration of TNF-α was measured using TNF-α ELISA (R&D Systems, Human TNF-alpha Quantikine ELISA Kit, Cat # STA00C).

A549 cells = format: cell-based, human; conditions: 48 hours, MTT, 0.3-90 μg/ml peptide
Method: (§1) A549 cells were seeded at 6000 cells/well in 200 μA of media (DMEM medium+5% FBS) in a 96 well plate and incubated over-night (O.N). Cells were starved in 100 μl of serum free medium (SFM) containing 0.1% FBS, O.N. All lyophilized peptides were dissolved in H2O (prewarmed to 50° C.) and hand-stirred, giving a final concentration of 1 mg/ml. Reconstituted peptides were added in concentrations of 0.3, 1, 3, 10, 30 or 90 μg/ml and the cells were incubated for 48 hours.
(§2) Cell proliferation was measured using MTT assay as follows: 20 μl of MTT solution ((3-[4,5-Dimethyl-2-thiazolyl]-2,5-diphenyl-2H-tetrazolium bromide, Sigma Cat#M5655, lot#085k5322, 1 gr was dissolved in 200 ml H2O and filtered, giving a final concentration of 5 mg/ml) were added to each well for 4 hrs, after which the medium was vacuumed and 100 μl of DMSO were added to each well. Absorbance was measured in an ELISA reader at 492 nm. The results are shown in FIG. 8, and depicted in percent relative to untreated cells (which was defined as 100).

MCF7 = assay: Proliferation of MCF7 cells (MTT assay); format: cell-based, human; conditions: MCF7, 48 hours, 0.003-60 μg/ml peptide
Method: as §1, with “Cells” for “A549 cells”, “5000” for “6000”, “μl” for “μA”, “0.003, 0.009, 0.028, 0.084, 0.25, 0.76, 2.28, 6.66, 20 and 60” for “0.3, 1, 3, 10, 30 or 90”
as §2, with “assay:” for “assay as follows:”, “nm.” for “nm. The results are shown in FIG. 8, and depicted in percent relative to untreated cells (which was defined as 100).”

HT29 = assay: Proliferation of HT29 cells (MTT assay); format: cell-based, human; conditions: HT29, 48 hours, 0.003-60 μg/ml peptide
Method: as §1, with “Cells” for “A549 cells”, “5000” for “6000”, “μl” for “μA”, “0.003, 0.009, 0.028, 0.084, 0.25, 0.76, 2.28, 6.66, 20 and 60” for “0.3, 1, 3, 10, 30 or 90”
as §2, with “assay:” for “assay as follows:”, “nm.” for “nm. The results are shown in FIG. 8, and depicted in percent relative to untreated cells (which was defined as 100).”

SW480 = assay: Proliferation of SW480 cells (MTT assay); format: cell-based, human; conditions: SW480, 48 hours, 0.003-60 μg/ml peptide
Method: as §1, with “Cells” for “A549 cells”, “5000” for “6000”, “μl” for “μA”, “0.003, 0.009, 0.028, 0.084, 0.25, 0.76, 2.28, 6.66, 20 and 60” for “0.3, 1, 3, 10, 30 or 90”
as §2, with “assay:” for “assay as follows:”, “nm.” for “nm. The results are shown in FIG. 8, and depicted in percent relative to untreated cells (which was defined as 100).”

HCT116 = assay: Proliferation of HCT116 cells (MTT assay); format: cell-based, human; conditions: HCT116, 48 hours, 0.003-60 μg/ml peptide
Method: as §1, with “Cells” for “A549 cells”, “5000” for “6000”, “μl” for “μA”, “0.003, 0.009, 0.028, 0.084, 0.25, 0.76, 2.28, 6.66, 20 and 60” for “0.3, 1, 3, 10, 30 or 90”
as §2, with “assay:” for “assay as follows:”, “nm.” for “nm. The results are shown in FIG. 8, and depicted in percent relative to untreated cells (which was defined as 100).”

human PBMCs = assay: Anti-CD3-induced cytokine release from human PBMCs (Luminex); format: cell-based; conditions: PBMCs treated with anti-CD3 antibody (1 μg/ml), 48 hours; peptide 30 μg/ml=6 μM (FIG. 2)
Method: Peptides were assayed at two concentrations (3 and 30 ug/mL) in duplicates. Cryopreserved PBMCs were drip-thaw and seeded at 1×10^4 cells/well in 140 μl of media per well. Cells were incubated for 1 hour at 37° C. at 5% CO2 and a peptide of the invention or Dexamethasone as a control, were added in 20 μl of medium. Cells were incubated for 30 minutes and anti-CD3 antibody (1 μg/ml) was added at the appropriate concentration in 40 μl of medium. Plates were incubated for 48 hours, spinned at 1200 rpm for 10 minutes and supernatants were collected and stored at −80° C. Cytokines' concentration was measured using a Luminex analyzer (IS100, Luminex Corporation) and bead-based reagents (Upstate Biotechnology).

Compound	inhibition of LPS-induced TNF-α secretion (THP-1 cells; 30 μg/ml peptide)	inhibition of proliferation, dose dependence (A549 cells)	inhibition of LPS-induced TNF-α secretion (THP-1 cells; 10 μg/ml peptide)	inhibition of proliferation, dose dependence (MCF7)	inhibition of proliferation, dose dependence (HT29)	inhibition of proliferation, dose dependence (SW480)	inhibition of proliferation, dose dependence (HCT116)	decrease of IL-1α (human PBMCs)	decrease of IL-1β (human PBMCs)	decrease of IL-2 release (human PBMCs)	decrease of IL-12p40 (human PBMCs)	decrease of IL-12p70 (human PBMCs)	decrease of TNFα (human PBMCs)	inhibition of GM-CSF release (human PBMCs)
CC[C@H](C)[C@H](NC(=O)[C@H](CCCCN)NC(=O)[C@H](CCCCN)NC(=O)[C@@H](NC(=O)[C@H](CCSC)NC(=O)[C@H](CC(=O)O)NC(=O)[C@H](CC(C)C)NC(=O)[C@@H](NC(=O)[C@H](CCCCN)NC(=O)[C@H](CCCNC(=N)N)NC(=O)[C@@H](NC(=O)[C@H](CC(C)C)NC(=O)[C@H](CCCCN)NC(=O)[C@H](CCCCN)NC(=O)[C@H](CCCNC(=N)N)NC(=O)[C@@H](NC(=O)[C@@H](NC(=O)[C@H](CCCCN)NC(=O)[C@H](CC(C)C)NC(=O)[C@H](CC(C)C)NC(=O)[C@H](CCCCN)NC(=O)[C@H](Cc1c[nH]cn1)NC(=O)[C@H](CCC(N)=O)NC(=O)[C@H](CCC(N)=O)NC(=O)[C@H](CC(C)C)NC(=O)[C@@H](NC(C)=O)[C@@H](C)O)C(C)C)[C@@H](C)CC)C(C)C)[C@@H](C)O)[C@@H](C)CC)C(=O)N[C@@H](C)C(=O)N[C@@H](CC(=O)O)C(=O)N[C@@H](CC(=O)O)C(=O)N[C@@H](CCCCN)C(=O)N[C@@H](Cc1ccc(O)cc1)C(N)=O [CGEN-GP4]	100%	dose-dependent	–	–	–	–	–	–	–	–	–	–	–	–
Ac-HKLLKVIRKKLVRKTLDMIKKIADDKYNDTFWKEF-NH2 [CGEN-GP5]	–	dose-dependent	100%	dose-dependent	dose-dependent	dose-dependent	dose-dependent	–	–	–	–	–	–	–
IYVWSSKTETVEEPMEEEEAAKEEKEESDDEA (Ac-IYVWSSKTETVEEPMEEEEAAKEEKEESDDEA-NH2) [CGEN-GP3]	–	–	–	–	–	–	–	30%	60%	70%	40%	70%	approximately 30%	no effect
